# From patent publication US8440628B2, “Medical compositions containing ghrelin” (Daiichi Sankyo Company, Limited, priority 2002, dated 2013)
# How the values were obtained:
# Assay type in all cases: physicochemical
# [1] = Stability of human ghrelin in Britton-Robinson buffer solutions of various pH at 40°C (Example 3); conditions: pH range of 2 to 7, stored at 40° C. for 1 day (FIG. 3)
# Description: Human ghrelin, which is one of the ghrelins, was dissolved in the Britton-Robinson buffer solutions which is adjusted by combining 0.04M phosphoric acid-acetic acid-boric acid aqueous solution and 0.2M sodium hydrate aqueous solution in appropriate ratio, having pH of 2.1, 3.1, 4.0, 5.0, 6.0, 7.0 and 7.9 to obtain an aqueous solution containing human ghrelin in the concentration of about 0.15 μmol/mL (0.5 mg/mL). The obtained solution was filled in brownish glass ampoules and the ampoules were sealed with fire. For the calculation of kinetic constant, the certain degrees of degradation products have to be occurred in the aqueous solution of the ghrelins, and therefore, the ampoules were stored at 40±1° C., which was severe conditions for storage. The concentration (residual ratio) of human ghrelin was conducted by HPLC with time. At the same time, the pH of the solution was measured and it was confirmed that there was no significant changes of pH in solution.
# The kinetic constants in each pH solution were calculated from the sequential change of the residual ratio, and the results were shown in FIG. 2.
# [2] = Stability of human ghrelin in pH-adjusted purified water at 25°C (Example 7); conditions: for Peak area ratio to total peak area: 25±2°C
# Description: Human ghrelin was dissolved in the purified water with about 0.03 μmol/mL (0.1 mg/mL). […] This solution was divided into quarter, and one portion was kept alone and the pH values of the remaining three portions were adjusted to pH 1.8 (with 17 mM of hydrochloric acid), pH 3.9 (with 0.20 mM of hydrochloric acid) and pH 7.8 (with 0.24 mM of sodium hydroxide) respectively, by adding along with hydrochloric acid or sodium hydroxide aqueous solution.
# [3] = Stability of human ghrelin in 0.1M HCl and Mcllvain buffer solutions of various pH at 25°C (Example 2, HPLC peak area ratio)
# Description: Human ghrelin was dissolved in the following aqueous solutions in the concentration of about 0.15 μmol/mL (0.5 mg/mL).
# 0.1M HCl aqueous solution (pH: 1.1)
# The pH was adjusted with 0.1M citric aqueous acid and 0.2M dibasic sodium phosphate aqueous solution.
# Each solution were stored at 25±2° C. for 8, 24, 48 and 72 hours respectively, and the obtained solutions were detected by HPLC analysis in comparison to the solutions before storage. […] No significant changes of pH in solution before storage and after storage were observed.
substance,measurement,setting,value
[3-Dehydroalanine]human ghrelin [Dha compound],Production of the degradation product in human ghrelin solution,[1],inhibited
same,Production of the degradation product in human ghrelin solution,"[2]; aqueous solution of pH 3.9 and 4.7, 25±2°C, up to 3 days",inhibited
same,Peak area ratio to total peak area,"[2]; human ghrelin 0.1 mg/mL in purified water adjusted to pH 1.8 with hydrochloric acid, 1 day after",0.31%
same,Peak area ratio to total peak area,"[2]; human ghrelin 0.1 mg/mL in purified water adjusted to pH 1.8 with hydrochloric acid, before storage",0.20%
same,Peak area ratio to total peak area,"[2]; human ghrelin 0.1 mg/mL in purified water adjusted to pH 3.9 with hydrochloric acid, 1 day after",0.20%
same,Peak area ratio to total peak area,"[2]; human ghrelin 0.1 mg/mL in purified water adjusted to pH 3.9 with hydrochloric acid, 3 days after",0.19%
same,Peak area ratio to total peak area,"[2]; human ghrelin 0.1 mg/mL in purified water adjusted to pH 3.9 with hydrochloric acid, before storage",0.20%
same,Peak area ratio to total peak area,"[2]; human ghrelin 0.1 mg/mL in purified water adjusted to pH 7.8 with sodium hydroxide, 1 day after",0.86%
same,Peak area ratio to total peak area,"[2]; human ghrelin 0.1 mg/mL in purified water adjusted to pH 7.8 with sodium hydroxide, before storage",0.24%
same,Peak area ratio to total peak area,"[2]; human ghrelin 0.1 mg/mL in purified water, pH 4.7 (not adjusted), 1 day after",0.21%
same,Peak area ratio to total peak area,"[2]; human ghrelin 0.1 mg/mL in purified water, pH 4.7 (not adjusted), 3 days after",0.21%
same,Peak area ratio to total peak area,"[2]; human ghrelin 0.1 mg/mL in purified water, pH 4.7 (not adjusted), before storage",0.20%
same,Production of the degradation product in human ghrelin solution,"[3]; Mcllvain buffer, pH range of 3.0 to 5.0, 25±2°C, up to 72 hours",inhibited
same,Peak area ratio to total peak area,"[3]; human ghrelin 0.5 mg/mL in 0.1M HCl aqueous solution, pH 1, 25±2°C, 8 hr. after",0.15%
same,Peak area ratio to total peak area,"[3]; human ghrelin 0.5 mg/mL in 0.1M HCl aqueous solution, pH 1, 25±2°C, 24 hr. after",0.09%
same,Peak area ratio to total peak area,"[3]; human ghrelin 0.5 mg/mL in 0.1M HCl aqueous solution, pH 1, 25±2°C, 48 hr. after",0.04%
same,Peak area ratio to total peak area,"[3]; human ghrelin 0.5 mg/mL in 0.1M HCl aqueous solution, pH 1, 25±2°C, 72 hr. after",0.00%
same,Peak area ratio to total peak area,"[3]; human ghrelin 0.5 mg/mL in 0.1M HCl aqueous solution, pH 1, 25±2°C, before storage",0.21%
same,Peak area ratio to total peak area,"[3]; human ghrelin 0.5 mg/mL in Mcllvain buffer, pH 2, 25±2°C, 8 hr. after",0.20%
same,Peak area ratio to total peak area,"[3]; human ghrelin 0.5 mg/mL in Mcllvain buffer, pH 2, 25±2°C, 24 hr. after",0.23%
same,Peak area ratio to total peak area,"[3]; human ghrelin 0.5 mg/mL in Mcllvain buffer, pH 2, 25±2°C, 48 hr. after",0.24%
same,Peak area ratio to total peak area,"[3]; human ghrelin 0.5 mg/mL in Mcllvain buffer, pH 2, 25±2°C, 72 hr. after",0.25%
same,Peak area ratio to total peak area,"[3]; human ghrelin 0.5 mg/mL in Mcllvain buffer, pH 2, 25±2°C, before storage",0.20%
same,Peak area ratio to total peak area,"[3]; human ghrelin 0.5 mg/mL in Mcllvain buffer, pH 3, 25±2°C, 8 hr. after",0.20%
same,Peak area ratio to total peak area,"[3]; human ghrelin 0.5 mg/mL in Mcllvain buffer, pH 3, 25±2°C, 24 hr. after",0.23%
same,Peak area ratio to total peak area,"[3]; human ghrelin 0.5 mg/mL in Mcllvain buffer, pH 3, 25±2°C, 48 hr. after",0.24%
same,Peak area ratio to total peak area,"[3]; human ghrelin 0.5 mg/mL in Mcllvain buffer, pH 3, 25±2°C, 72 hr. after",0.25%
same,Peak area ratio to total peak area,"[3]; human ghrelin 0.5 mg/mL in Mcllvain buffer, pH 3, 25±2°C, before storage",0.20%
same,Peak area ratio to total peak area,"[3]; human ghrelin 0.5 mg/mL in Mcllvain buffer, pH 4, 25±2°C, 8 hr. after",0.20%
same,Peak area ratio to total peak area,"[3]; human ghrelin 0.5 mg/mL in Mcllvain buffer, pH 4, 25±2°C, 24 hr. after",0.21%
same,Peak area ratio to total peak area,"[3]; human ghrelin 0.5 mg/mL in Mcllvain buffer, pH 4, 25±2°C, 48 hr. after",0.22%
same,Peak area ratio to total peak area,"[3]; human ghrelin 0.5 mg/mL in Mcllvain buffer, pH 4, 25±2°C, 72 hr. after",0.23%
same,Peak area ratio to total peak area,"[3]; human ghrelin 0.5 mg/mL in Mcllvain buffer, pH 4, 25±2°C, before storage",0.20%
same,Peak area ratio to total peak area,"[3]; human ghrelin 0.5 mg/mL in Mcllvain buffer, pH 5, 25±2°C, 8 hr. after",0.21%
same,Peak area ratio to total peak area,"[3]; human ghrelin 0.5 mg/mL in Mcllvain buffer, pH 5, 25±2°C, 24 hr. after",0.21%
same,Peak area ratio to total peak area,"[3]; human ghrelin 0.5 mg/mL in Mcllvain buffer, pH 5, 25±2°C, 48 hr. after",0.23%
same,Peak area ratio to total peak area,"[3]; human ghrelin 0.5 mg/mL in Mcllvain buffer, pH 5, 25±2°C, 72 hr. after",0.24%
same,Peak area ratio to total peak area,"[3]; human ghrelin 0.5 mg/mL in Mcllvain buffer, pH 5, 25±2°C, before storage",0.21%
same,Peak area ratio to total peak area,"[3]; human ghrelin 0.5 mg/mL in Mcllvain buffer, pH 6, 25±2°C, 8 hr. after",0.21%
same,Peak area ratio to total peak area,"[3]; human ghrelin 0.5 mg/mL in Mcllvain buffer, pH 6, 25±2°C, 24 hr. after",0.26%
same,Peak area ratio to total peak area,"[3]; human ghrelin 0.5 mg/mL in Mcllvain buffer, pH 6, 25±2°C, 48 hr. after",0.31%
same,Peak area ratio to total peak area,"[3]; human ghrelin 0.5 mg/mL in Mcllvain buffer, pH 6, 25±2°C, 72 hr. after",0.35%
same,Peak area ratio to total peak area,"[3]; human ghrelin 0.5 mg/mL in Mcllvain buffer, pH 6, 25±2°C, before storage",0.20%
same,Peak area ratio to total peak area,"[3]; human ghrelin 0.5 mg/mL in Mcllvain buffer, pH 7, 25±2°C, 8 hr. after",0.25%
same,Peak area ratio to total peak area,"[3]; human ghrelin 0.5 mg/mL in Mcllvain buffer, pH 7, 25±2°C, 24 hr. after",0.43%
same,Peak area ratio to total peak area,"[3]; human ghrelin 0.5 mg/mL in Mcllvain buffer, pH 7, 25±2°C, 48 hr. after",0.61%
same,Peak area ratio to total peak area,"[3]; human ghrelin 0.5 mg/mL in Mcllvain buffer, pH 7, 25±2°C, 72 hr. after",0.79%
same,Peak area ratio to total peak area,"[3]; human ghrelin 0.5 mg/mL in Mcllvain buffer, pH 7, 25±2°C, before storage",0.22%
same,Peak area ratio to total peak area,"[3]; human ghrelin 0.5 mg/mL in Mcllvain buffer, pH 8, 25±2°C, 8 hr. after",0.68%
same,Peak area ratio to total peak area,"[3]; human ghrelin 0.5 mg/mL in Mcllvain buffer, pH 8, 25±2°C, 24 hr. after",1.39%
same,Peak area ratio to total peak area,"[3]; human ghrelin 0.5 mg/mL in Mcllvain buffer, pH 8, 25±2°C, 48 hr. after",2.39%
same,Peak area ratio to total peak area,"[3]; human ghrelin 0.5 mg/mL in Mcllvain buffer, pH 8, 25±2°C, 72 hr. after",3.12%
same,Peak area ratio to total peak area,"[3]; human ghrelin 0.5 mg/mL in Mcllvain buffer, pH 8, 25±2°C, before storage",0.24%
